Several values for one entry are separate records, joined by “and”; a condition that tells them apart may be missing. Equal values may be shown once. Toxic doses and inconclusive results are not listed.

Experimental findings from PubChem BioAssay AID330 (DTP/NCI, 2004) are described below.

The experiment has as its system P388 leukemia ip, CD2F1 mice, survival T/C. Put plainly: NCI In Vivo Anticancer Drug Screen. Data for tumor model P388 Leukemia (intraperitoneal) in CD2F1 (CDF1) mice. As to conditions: endpoint: median survival time, higher = longer survival. Put shortly:
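Mice carrying the transplanted tumor received test compound or vehicle. Survival was recorded in each group, and the value is the treated-group measurement divided by that of the vehicle-treated control group.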

The mark [1] stands for this setting: dose: 100.0 mg/kg/injection, schedule: Q01DX001 (ip), vehicle: Klucel (hydroxypropylcellulose) (HPC).
Setting [2] is: dose: 200.0 mg/kg/injection, schedule: Q01DX001 (ip), vehicle: Klucel (hydroxypropylcellulose) (HPC).
[3] abbreviates: dose: 60.0 mg/kg/injection, schedule: Q01DX005 (ip), vehicle: saline with Tween-80.
The mark [4] stands for this setting: dose: 120.0 mg/kg/injection, schedule: Q01DX005 (ip), vehicle: saline with Tween-80.
Setting [5] is: dose: 240.0 mg/kg/injection, schedule: Q01DX005 (ip), vehicle: saline with Tween-80.
Setting [6] is: dose: 50.0 mg/kg/injection, schedule: Q01DX005 (ip), vehicle: Klucel (hydroxypropylcellulose) (HPC).
The mark [7] stands for this setting: dose: 100.0 mg/kg/injection, schedule: Q01DX005 (ip), vehicle: Klucel (hydroxypropylcellulose) (HPC).
Setting [8] is: dose: 50.0 mg/kg/injection, schedule: Q01DX009 (ip), vehicle: saline.
Where [9] appears, read: dose: 12.5 mg/kg/injection, schedule: Q01DX009 (ip), vehicle: saline with Tween-80.
The mark [10] stands for this setting: dose: 25.0 mg/kg/injection, schedule: Q01DX009 (ip), vehicle: saline with Tween-80.

`CN1CC[C@]23c4c5ccc(O)c4OC2C(O)C=C[C@H]3[C@H]1C5` (stereo partly specified): the T/C is, setting by setting: under setting [1], 103 % of control; under setting [2], 100 % of control; (dose: 400.0 mg/kg/injection, schedule: Q01DX001 (ip), vehicle: Klucel (hydroxypropylcellulose) (HPC)) 110 % of control.

Regarding `COc1ccc(C[Se][Se]Cc2ccc(OC)cc2)cc1`, the T/C was 99 % of control (dose: 6.25 mg/kg/injection, schedule: Q01DX009 (ip), vehicle: Klucel (hydroxypropylcellulose) (HPC)); 108 % of control (dose: 12.5 mg/kg/injection, schedule: Q01DX009 (ip), vehicle: Klucel (hydroxypropylcellulose) (HPC)); 106 % of control (dose: 25.0 mg/kg/injection, schedule: Q01DX009 (ip), vehicle: Klucel (hydroxypropylcellulose) (HPC)).

Take `COC(=O)Nc1nc2ccc(C(=O)c3ccccc3)cc2[nH]1`: the T/C by setting is: (dose: 2.0 mg/kg/injection, schedule: Q04DX003 (ip), vehicle: saline with Tween-80) 100 % of control; (dose: 4.0 mg/kg/injection, schedule: Q04DX003 (ip), vehicle: saline with Tween-80) 100 % of control; (dose: 8.0 mg/kg/injection, schedule: Q04DX003 (ip), vehicle: saline with Tween-80) 113 % of control; (dose: 16.0 mg/kg/injection, schedule: Q04DX003 (ip), vehicle: saline with Tween-80) 118 % of control; (dose: 32.0 mg/kg/injection, schedule: Q04DX003 (ip), vehicle: saline with Tween-80) 202 % of control; (dose: 64.0 mg/kg/injection, schedule: Q04DX003 (ip), vehicle: saline with Tween-80) 190 % of control. Further, the T/C reads like this: (dose: 80.0 mg/kg/injection, schedule: Q04DX003 (ip), vehicle: other) 192 % of control; (dose: 80.0 mg/kg/injection, schedule: Q04DX003 (oral), vehicle: other) 112 % of control and 113 % of control; (dose: 80.0 mg/kg/injection, schedule: Q04DX003 (oral), vehicle: saline) 98 % of control; (dose: 320.0 mg/kg/injection, schedule: Q04DX003 (oral), vehicle: saline) 115 % of control; (dose: 1280.0 mg/kg/injection, schedule: Q04DX003 (oral), vehicle: saline) 165 % of control.

`COC(=O)c1cc2c(cc1/C=C/C=O)OCO2`: the T/C under setting [3] is 100 % of control, the T/C under setting [4] is 109 % of control and the T/C under setting [5] is 109 % of control.

For the compound `Cc1ccc(S(=O)(=O)/N=C2\CCN(S(=O)(=O)c3ccc(C)cc3)N2S(=O)(=O)c2ccc(C)cc2)cc1`, the T/C reads like this: under setting [6], 97 % of control; under setting [7], 94 % of control; (dose: 200.0 mg/kg/injection, schedule: Q01DX005 (ip), vehicle: Klucel (hydroxypropylcellulose) (HPC)) 97 % of control.

For the compound `O=C1c2c(O)ccc(O)c2C(=O)c2c(NCCCCCO)ccc(NCCCCCO)c21`, the T/C was 94 % of control (dose: 20.0 mg/kg/injection, schedule: Q01DX009 (ip), vehicle: Klucel (hydroxypropylcellulose) (HPC)); 89 % of control (dose: 40.0 mg/kg/injection, schedule: Q01DX009 (ip), vehicle: Klucel (hydroxypropylcellulose) (HPC)); 93 % of control (dose: 80.0 mg/kg/injection, schedule: Q01DX009 (ip), vehicle: Klucel (hydroxypropylcellulose) (HPC)); 93 % of control (dose: 160.0 mg/kg/injection, schedule: Q01DX009 (ip), vehicle: Klucel (hydroxypropylcellulose) (HPC)); 111 % of control (dose: 320.0 mg/kg/injection, schedule: Q01DX009 (ip), vehicle: Klucel (hydroxypropylcellulose) (HPC)).

Turning to `Cc1ccc(C(C)C)c(OCCN)c1`, the T/C was 112 % of control (dose: 6.25 mg/kg/injection, schedule: Q01DX009 (ip), vehicle: saline); 110 % of control (dose: 12.5 mg/kg/injection, schedule: Q01DX009 (ip), vehicle: saline); 107 % of control (dose: 25.0 mg/kg/injection, schedule: Q01DX009 (ip), vehicle: saline); 94 % of control under setting [8].

As to `CC[CH2][Sn]([F])([F])[CH2]CC`, the T/C is, setting by setting: (dose: 0.78 mg/kg/injection, schedule: Q04DX003 (ip), vehicle: saline) 105 % of control; (dose: 1.56 mg/kg/injection, schedule: Q04DX003 (ip), vehicle: saline) 100 % of control and 114 % of control; (dose: 3.12 mg/kg/injection, schedule: Q04DX003 (ip), vehicle: saline) 102 % of control; (dose: 6.25 mg/kg/injection, schedule: Q04DX003 (ip), vehicle: saline) 105 % of control; (dose: 12.5 mg/kg/injection, schedule: Q04DX003 (ip), vehicle: saline) 114 % of control.

For `CC(C)n1cc(C(C)(C)C)nc1SSc1nc(C(C)(C)C)cn1C(C)C`, the T/C was 100 % of control under setting [6] and 96 % of control under setting [7].

Turning to `Cc1cc(=O)[nH]c(N/N=C/c2c(O)ccc3ccccc23)n1`, the T/C was 93 % of control under setting [9]; 88 % of control under setting [10]; 87 % of control (dose: 50.0 mg/kg/injection, schedule: Q01DX009 (ip), vehicle: saline with Tween-80); 102 % of control (dose: 100.0 mg/kg/injection, schedule: Q01DX009 (ip), vehicle: saline with Tween-80).

Take `CCCCCCCCCc1ccc(OCCOCCOCCOCCOCCOCCOCCOCCOCCOC(C)N2CCCC2=O)cc1` (stereo unspecified): the T/C (dose: 6.25 mg/kg/injection, schedule: Q01DX009 (ip), vehicle: saline with Tween-80) is 110 % of control; the T/C under setting [9] is 115 % of control; the T/C under setting [10] is 120 % of control.

Consider `CC(=O)OCc1ccncc1`, for which the T/C runs as follows: (dose: 12.5 mg/kg/injection, schedule: Q01DX009 (ip), vehicle: distilled water + Tween-80) 95 % of control; (dose: 25.0 mg/kg/injection, schedule: Q01DX009 (ip), vehicle: distilled water + Tween-80) 101 % of control; (dose: 50.0 mg/kg/injection, schedule: Q01DX009 (ip), vehicle: distilled water + Tween-80) 102 % of control; (dose: 100.0 mg/kg/injection, schedule: Q01DX009 (ip), vehicle: distilled water + Tween-80) 110 % of control; (dose: 200.0 mg/kg/injection, schedule: Q01DX009 (ip), vehicle: distilled water + Tween-80) 100 % of control; (dose: 400.0 mg/kg/injection, schedule: Q01DX009 (ip), vehicle: distilled water + Tween-80) 92 % of control.

For the compound `Cn1ncc2c(=O)[nH]c(-c3ccccc3)nc21`, the T/C is 105 % of control under setting [3], 96 % of control under setting [4] and 105 % of control under setting [5].

On to `Cc1[nH]c2ccc(N(C)C)cc2c(=O)c1CN1CCOCC1`, for which the T/C runs as follows: (dose: 50.0 mg/kg/injection, schedule: Q01DX009 (ip), vehicle: Klucel (hydroxypropylcellulose) (HPC)) 107 % of control; (dose: 100.0 mg/kg/injection, schedule: Q01DX009 (ip), vehicle: Klucel (hydroxypropylcellulose) (HPC)) 115 % of control; (dose: 200.0 mg/kg/injection, schedule: Q01DX009 (ip), vehicle: Klucel (hydroxypropylcellulose) (HPC)) 107 % of control.

For the compound `NC(=O)c1ncn(C2OC(COP(=O)(O)O)C(O)C2O)n1` (stereo unspecified), the T/C by setting is: under setting [8], 104 % of control and 106 % of control; (dose: 100.0 mg/kg/injection, schedule: Q01DX009 (ip), vehicle: saline) 107 % of control and 109 % of control; (dose: 200.0 mg/kg/injection, schedule: Q01DX009 (ip), vehicle: saline) 113 % of control and 120 % of control.

As for `O=C/C=C/C=O`, the T/C was 102 % of control (dose: 3.13 mg/kg/injection, schedule: Q01DX001 (ip), vehicle: saline with Tween-80); 102 % of control (dose: 6.25 mg/kg/injection, schedule: Q01DX001 (ip), vehicle: saline with Tween-80); 102 % of control (dose: 12.5 mg/kg/injection, schedule: Q01DX001 (ip), vehicle: saline with Tween-80); 114 % of control (dose: 25.0 mg/kg/injection, schedule: Q01DX001 (ip), vehicle: saline with Tween-80).

Regarding `COc1ccc(C2C3CCCC(C3O)C(c3ccc(OC)cc3)N2C)cc1` (stereo unspecified), the T/C (dose: 100.0 mg/kg/injection, schedule: Q04DX003 (ip), vehicle: suspension in saline) was 103 % of control; the T/C (dose: 200.0 mg/kg/injection, schedule: Q04DX003 (ip), vehicle: suspension in saline) was 104 % of control; the T/C (dose: 400.0 mg/kg/injection, schedule: Q04DX003 (ip), vehicle: suspension in saline) is 100 % of control.

On to `C/C(NCCc1ccccc1)=C1\CCOC1=O`, for which the T/C (dose: 50.0 mg/kg/injection, schedule: Q01DX001 (ip), vehicle: Klucel (hydroxypropylcellulose) (HPC)) was 101 % of control; the T/C under setting [1] is 96 % of control; the T/C under setting [2] is 104 % of control.
